Here are results for four compounds from patent publication US7759369B2, “Pyridine compounds for the treatment of prostaglandin mediated diseases” (Glaxo Group Limited, priority 2004, dated 2010).

Each structure is given as a SMILES string.

In assay [1] the target is T1, EP1 receptors (Homo sapiens, UniProt P34995).
T1 sequence (P34995 1-402): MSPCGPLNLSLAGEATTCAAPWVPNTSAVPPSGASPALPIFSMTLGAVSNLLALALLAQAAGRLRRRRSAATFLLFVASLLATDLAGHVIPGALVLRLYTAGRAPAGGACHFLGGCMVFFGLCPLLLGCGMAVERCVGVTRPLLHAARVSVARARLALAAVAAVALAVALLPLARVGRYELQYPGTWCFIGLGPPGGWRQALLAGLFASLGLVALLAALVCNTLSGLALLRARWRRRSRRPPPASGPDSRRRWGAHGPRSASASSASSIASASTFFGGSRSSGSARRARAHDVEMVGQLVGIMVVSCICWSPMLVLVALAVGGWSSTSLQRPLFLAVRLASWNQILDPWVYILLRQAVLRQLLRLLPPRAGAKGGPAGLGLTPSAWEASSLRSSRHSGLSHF
Nature of the assay: human EP1 calcium mobilisation assay (CHO-K1 cells, PGE2, FLIPR). It is filed as cell-based. Details: expressed in transfected cells; host or cells: CHO-K1. The following applies: free bases or sodium salts; averages of a number of experiments; read-out: functional pKi value, human EP1 calcium mobilisation assay (converted). Here is the method:
(§1) Briefly, the antagonist properties of compounds are assessed by their ability to inhibit the mobilisation of intracellular calcium ([Ca^2+]i) in response to activation of EP1 or EP3 receptors by the natural agonist hormone prostaglandin E2 (PGE2). Increasing concentrations of antagonist reduce the amount of calcium that a given concentration of PGE2 can mobilise. The net effect is to displace the PGE2 concentration-effect curve to higher concentrations of PGE2. The amount of calcium produced is assessed using a calcium-sensitive fluorescent dye such as Fluo-4, AM and a suitable instrument such as a Fluorimetric Imaging Plate Reader (FLIPR). Increasing amounts of [Ca^2+]i produced by receptor activation increase the amount of fluorescence produced by the dye and give rise to an increasing signal. The signal may be detected using the FLIPR instrument and the data generated may be analysed with suitable curve-fitting software.
(§2) The human EP1 or EP3 calcium mobilisation assay (hereafter referred to as ‘the calcium assay’) utilises Chinese hamster ovary-K1 (CHO-K1) cells into which a stable (pCIN; BioTechniques 20 (1996): 102-110) vector containing either EP1 or EP3 cDNA has previously been transfected. Cells are cultured in suitable flasks containing culture medium such as DMEM:F-12 supplemented with 10% v/v foetal calf serum, 2 mM L-glutamine, 0.25 mg/ml geneticin, 100 μM flurbiprofen and 10 µg/ml puromycin.
(§3) For assay, cells are harvested using a proprietary reagent that dislodges cells such as Versene. Cells are re-suspended in a suitable quantity of fresh culture media for introduction into a 384-well plate. Following incubation for 24 hours at 37° C. the culture media is replaced with a medium containing Fluo-4 and the detergent pluronic acid, and a further incubation takes place. Concentrations of compounds are then added to the plate in order to construct concentration-effect curves. This may be performed on the FLIPR in order to assess the agonist properties of the compounds. Concentrations of PGE2 are then added to the plate in order to assess the antagonist properties of the compounds.
(§4) The data so generated may be analysed by means of a computerised curve-fitting routine. The concentration of compound that elicits a half-maximal inhibition of the calcium mobilisation induced by PGE2 (pIC50) may then be estimated.
A general note: A change in cytosolic calcium serves as a functional read-out for many receptors and channels.

In assay [2] the target is T1, EP1 receptors. Nature of the assay: Binding assay for the human prostanoid EP1 receptor (competition with [3H]-PGE2). Also on record: expressed in transfected cells; host or cells: CHO-K1 (membrane fraction). The settings on record: averages of a number of experiments; Example 3 as sodium salt; read-out: pIC50 value in the binding assay for the human prostanoid EP1 receptor (converted). Here is the method:
Binding Assay for the Human Prostanoid EP1 Receptor
Competition assay using [^3H]-PGE2.
Compound potencies are determined using a radioligand binding assay. In this assay compound potencies are determined from their ability to compete with tritiated prostaglandin E2 ([^3H]-PGE2) for binding to the human EP1 receptor.
This assay utilises Chinese hamster ovary-K1 (CHO-K1) cells into which a stable vector containing the EP1 cDNA has previously been transfected. Cells are cultured in suitable flasks containing culture medium such as DMEM:F-12 supplemented with 10% v/v foetal calf serum, 2 mM L-glutamine, 0.25 mg/ml geneticin, 10 μg/ml puromycin and 10 μM indomethacin.
Cells are detached from the culture flasks by incubation in calcium and magnesium free phosphate buffered saline containing 1 mM disodium ethylenediaminetetraacetic acid (Na2EDTA) and 10 μM indomethacin for 5 min. The cells are isolated by centrifugation at 250×g for 5 mins and suspended in an ice cold buffer such as 50 mM Tris, 1 mM Na2EDTA, 140 mM NaCl, 10 μM indomethacin (pH 7.4). The cells are homogenised using a Polytron tissue disrupter (2×10s burst at full setting), centrifuged at 48,000×g for 20 mins and the pellet containing the membrane fraction is washed (optional) three times by suspension and centrifugation at 48,000×g for 20 mins. The final membrane pellet is suspended in an assay buffer such as 10 mM 2-[N-morpholino]ethanesulphonic acid, 1 mM Na2EDTA, 10 mM MgCl2 (pH 6). Aliquots are frozen at −80° C. until required.
For the binding assay the cell membranes, competing compounds and [^3H]-PGE2 (3 nM final assay concentration) are incubated in a final volume of 100 μl for 30 min at 30° C. All reagents are prepared in assay buffer. Reactions are terminated by rapid vacuum filtration over GF/B filters using a Brandell cell harvester. The filters are washed with ice cold assay buffer, dried and the radioactivity retained on the filters is measured by liquid scintillation counting in Packard TopCount scintillation counter.
The data are analysed using non linear curve fitting techniques to determine the concentration of compound producing 50% inhibition of specific binding (IC50).

For a further assay, the target named is T2, TP receptor (Homo sapiens, UniProt P21731).
T2 construct: expressed in transfected cells; host or cells: CHO-K1
T2 sequence (P21731 1-343): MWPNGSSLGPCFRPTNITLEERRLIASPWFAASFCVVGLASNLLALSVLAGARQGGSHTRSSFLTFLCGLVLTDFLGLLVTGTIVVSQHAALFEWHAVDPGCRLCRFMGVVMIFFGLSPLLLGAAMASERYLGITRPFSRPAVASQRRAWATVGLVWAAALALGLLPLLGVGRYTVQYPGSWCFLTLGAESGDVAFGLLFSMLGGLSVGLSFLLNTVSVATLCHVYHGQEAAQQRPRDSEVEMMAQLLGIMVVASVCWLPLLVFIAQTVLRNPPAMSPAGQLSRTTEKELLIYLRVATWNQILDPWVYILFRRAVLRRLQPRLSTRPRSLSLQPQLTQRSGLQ
Description: human TP calcium mobilisation assay (CHO-K1 cells, U46619, FLIPR). The class given is cell-based. The following applies: free bases or sodium salts; read-out: functional pKi, human TP calcium mobilisation assay (converted). The procedure:
as §1, with “To determine if a compound has agonist or antagonist activity at the TP receptor a functional calcium mobilisation assay may be performed. Briefly,” for “Briefly,”, “TP” for “EP1 or EP3”, “stable TXA2 mimetic U46619 (9,11-dideoxy-11α,9α-epoxy-methanoprostaglandin F2 α; commercially available from e.g Sigma-Aldrich).” for “natural agonist hormone prostaglandin E2 (PGE2).”, “U46619” for “PGE2”, “curve.” for “curve to higher concentrations of PGE2.”, “software. The agonist activity of the compounds are determined by their ability to cause an increase in intracellular mobilisation in the absence of U46619.” for “software.”
The human TP calcium mobilisation assay utilises Chinese hamster ovary-K1 (CHO-K1) cells into which a stable (pCIN; BioTechniques 20 (1996): 102-110) vector containing TP cDNA has previously been transfected. Cells are cultured in suitable flasks containing culture medium such as DMEM:F-12 supplemented with 10% v/v foetal calf serum, 2 mM L-glutamine, 0.25 mg/ml geneticin, 100 μM flurbiprofen and 10 μg/ml puromycin.
as §3, with “96-well” for “384-well”, “U46619” for “PGE2”
The data so generated may be analysed by means of a computerised curve-fitting routine. The concentration of compound that elicits a half-maximal inhibition of the calcium mobilisation induced by U46619 (plC50) may then be estimated, and the percentage activation caused by the compounds directly can be used to determine if there is any agonism present.

A further assay deals with T3, EP3 receptors (Homo sapiens, UniProt P43115).
T3 construct: expressed in transfected cells; host or cells: CHO-K1
T3 sequence (P43115 1-390): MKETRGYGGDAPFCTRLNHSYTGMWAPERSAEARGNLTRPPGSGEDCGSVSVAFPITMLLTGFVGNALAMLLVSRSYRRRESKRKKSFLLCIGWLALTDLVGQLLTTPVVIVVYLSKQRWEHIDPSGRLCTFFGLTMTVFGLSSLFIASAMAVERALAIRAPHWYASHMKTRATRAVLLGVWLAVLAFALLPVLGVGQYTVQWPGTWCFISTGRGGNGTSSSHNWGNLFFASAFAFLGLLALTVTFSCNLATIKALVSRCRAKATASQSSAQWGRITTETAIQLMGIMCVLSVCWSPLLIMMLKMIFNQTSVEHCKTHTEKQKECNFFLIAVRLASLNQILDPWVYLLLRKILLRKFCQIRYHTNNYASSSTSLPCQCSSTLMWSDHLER
Description: human EP3 calcium mobilisation assay (CHO-K1 cells, PGE2, FLIPR). The class given is cell-based. The settings on record: free bases or sodium salts; averages of a number of experiments; read-out: functional pKi value, human EP3 calcium mobilisation assay (converted). The procedure:
as §1, §2, §3, §4

For `CC(C)(C)Oc1ccc(Cl)cc1Cc1cccc(C(=O)O)n1` [Example 41, 6-({5-Chloro-2-[(1,1-dimethylethyl)oxy]phenyl}methyl)-2-pyridinecarboxylic acid], on EP1 receptors [1], the Ki was > 1000 nM. Moreover, at EP1 receptors [2], the IC50 is > 1000 nM.
Turning to `O=C(O)c1cccc(Cc2cc(Cl)ccc2OCc2ccc(Cl)cc2)n1` [Example 9, Sodium 6-[(5-chloro-2-{[(4-chlororophenyl)methyl]oxy}phenyl)methyl]-2-pyridinecarboxylate], the Ki on TP receptor was < 1000 nM; on EP3 receptors, > 10000 nM; on EP1 receptors [1] it was < 1000 nM.
For `O=C(O)c1cncc(Cc2cc(Cl)ccc2OCc2c(F)cccc2F)c1` [Example 27, Sodium 5-[(5-chloro-2-{[(2,6-difluorophenyl)methyl]oxy}phenyl)methyl]-3-pyridinecarboxylate], the IC50 on EP1 receptors [2] is > 1000 nM.
For `CC(C)COc1ccc(Cl)cc1Cc1cccc(C(=O)O)n1` [Example 15, Sodium 6-({5-chloro-2-[(2-methylpropyl)oxy]phenyl}methyl)-2-pyridinecarboxylate], the Ki at TP receptor is > 1000 nM; at EP3 receptors it was > 10000 nM; at EP1 receptors [1], < 1000 nM.
